Assays:
Assay in all cases: SelectScreen ZLYTE
Assay type in all cases: biochemical
Details in all cases: ATP Km, read-out: Percentage of inhibition
ABL1 F317I = ABL1 F317I (Homo sapiens, UniProt P00519, F317I)
Procedure: (§1) We further evaluated the selectivity profile of compound 55 on a larger panel of kinases (SelectScreen Whole Panel, Life Technologies). The inhibition profile of 55, evaluated at 1 μM, is depicted on a dendrogram on Figure 3 where kinases inhibited by a minimum of 80% are shown. A full list of the kinases tested is shown on Table S1 in supplementary information.

ABL1 T315I = target: T1, ABL1 T315I (Homo sapiens, UniProt P00519, T315I)
T1 construct: purchased Life Technologies (SelectScreen service)
Procedure: as §1

AKT1 (PKB alpha) = AKT1 (PKB alpha) (Homo sapiens, UniProt P31749)
Procedure: as §1

AMPK (A2/B2/G3) = AMPK (A2/B2/G3) (Homo sapiens, UniProt P54646)
Procedure: as §1

AURKA (Aurora A) = AURKA (Aurora A) (Homo sapiens, UniProt O14965)
Procedure: as §1

CDC42 BPA (MRCKA) = CDC42 BPA (MRCKA) (Homo sapiens, UniProt Q5VT25)
Procedure: as §1

CDC42 BPB (MRCKB) = target: T2, CDC42 BPB (MRCKB) (Homo sapiens, UniProt Q9Y5S2)
T2 construct: purchased Life Technologies (SelectScreen Whole Panel service)
Procedure: as §1

CDK18/cyclin Y = target: T3, CDK18/cyclin Y (Homo sapiens, UniProt Q07002)
T3 construct: purchased Life Technologies
Procedure: as §1

CHEK1 (CHK1) = CHEK1 (CHK1) (Homo sapiens, UniProt O14757)
Procedure: as §1

CSNK1D (CK1 delta) = target: T4, CSNK1D (CK1 delta) (Homo sapiens, UniProt P48730)
T4 construct: purchased Life Technologies (SelectScreen service)
Procedure: as §1

CSNK1E (CK1 epsilon) = target: T5, CSNK1E (CK1 epsilon) (Homo sapiens, UniProt P49674)
T5 construct: purchased Life Technologies (SelectScreen service)
Procedure: as §1

CSNK1G1 (CK1 gamma 1) = CSNK1G1 (CK1 gamma 1) (Homo sapiens, UniProt Q9HCP0)
Procedure: as §1

CSNK1G2 (CK1 gamma 2) = target: T6, CSNK1G2 (CK1 gamma 2) (Homo sapiens, UniProt P78368)
T6 construct: purchased Life Technologies
Procedure: as §1

DAPK3 (ZIPK) = target: T7, DAPK3 (ZIPK) (Homo sapiens, UniProt O43293)
T7 construct: purchased Life Technologies (SelectScreen Whole Panel service)
Procedure: as §1

DNA-PK = target: T8, DNA-PK (Homo sapiens, UniProt P78527)
T8 construct: purchased Life Technologies (SelectScreen Whole Panel)
Procedure: as §1

DYRK4 = target: T9, DYRK4 (Homo sapiens, UniProt Q9NR20)
T9 construct: purchased Life Technologies
Procedure: as §1

EGFR (ErbB1) = target: T10, EGFR (ErbB1) (Homo sapiens, UniProt P00533)
T10 construct: purchased Life Technologies
Procedure: as §1

EGFR (ErbB1) C797S = target: T11, EGFR (ErbB1) C797S (Homo sapiens, UniProt P00533, C797S)
T11 construct: purchased Life Technologies
Procedure: as §1

EGFR (ErbB1) G719S = target: T12, EGFR (ErbB1) G719S (Homo sapiens, UniProt P00533, G719S)
T12 construct: purchased Life Technologies (SelectScreen Whole Panel service)
Procedure: as §1

EGFR (ErbB1) T790M = target: T13, EGFR (ErbB1) T790M (Homo sapiens, UniProt P00533, T790M)
T13 construct: purchased Life Technologies
Procedure: as §1

EPHB2 = EPHB2 (Homo sapiens, UniProt P29323)
Procedure: as §1

EPHB4 = EPHB4 (Homo sapiens, UniProt P54760)
Procedure: as §1

FLT3 = target: T14, FLT3 (Homo sapiens, UniProt P36888)
T14 construct: purchased Life Technologies
Procedure: as §1

IGF1R = IGF1R (Homo sapiens, UniProt P08069)
Procedure: as §1

INSR = INSR (Homo sapiens, UniProt P06213)
Procedure: as §1

KDR (VEGFR2) = KDR (VEGFR2) (Homo sapiens, UniProt P35968)
Procedure: as §1

KIT = KIT (Homo sapiens, UniProt P10721)
Procedure: as §1

MAPK3 (ERK1) = target: T15, MAPK3 (ERK1) (Homo sapiens, UniProt P27361)
T15 construct: purchased Life Technologies
Procedure: as §1

MARK3 = target: T16, MARK3 (Homo sapiens, UniProt P27448)
T16 construct: purchased Life Technologies
Procedure: as §1

MELK = MELK (Homo sapiens, UniProt Q14680)
Procedure: as §1

PHKG2 = target: T17, PHKG2 (Homo sapiens, UniProt P15735)
T17 construct: purchased Life Technologies (SelectScreen)
Procedure: as §1

PIM1 = target: T18, PIM1 (Homo sapiens, UniProt P11309)
T18 construct: purchased Life Technologies (SelectScreen service)
Procedure: as §1

PRKCG (PKC gamma) = PRKCG (PKC gamma) (Homo sapiens, UniProt P05129)
Procedure: as §1

PTK6 (Brk) = PTK6 (Brk) (Homo sapiens, UniProt Q13882)
Procedure: as §1

SGKL (SGK3) = target: T19, SGKL (SGK3) (Homo sapiens, UniProt Q96BR1)
T19 construct: purchased Life Technologies (SelectScreen)
Procedure: as §1

SRMS (Srm) = target: T20, SRMS (Srm) (Homo sapiens, UniProt Q9H3Y6)
T20 construct: purchased Life Technologies (SelectScreen Whole Panel service)
Procedure: as §1

STK22B (TSSK2) = target: T21, STK22B (TSSK2) (Homo sapiens, UniProt Q96PF2)
T21 construct: purchased Life Technologies
Procedure: as §1

ZAP70 = target: T22, ZAP70 (Homo sapiens, UniProt P43403)
T22 construct: purchased Life Technologies (SelectScreen Whole Panel)
Procedure: as §1

T21 sequence (Q96PF2 whole entry): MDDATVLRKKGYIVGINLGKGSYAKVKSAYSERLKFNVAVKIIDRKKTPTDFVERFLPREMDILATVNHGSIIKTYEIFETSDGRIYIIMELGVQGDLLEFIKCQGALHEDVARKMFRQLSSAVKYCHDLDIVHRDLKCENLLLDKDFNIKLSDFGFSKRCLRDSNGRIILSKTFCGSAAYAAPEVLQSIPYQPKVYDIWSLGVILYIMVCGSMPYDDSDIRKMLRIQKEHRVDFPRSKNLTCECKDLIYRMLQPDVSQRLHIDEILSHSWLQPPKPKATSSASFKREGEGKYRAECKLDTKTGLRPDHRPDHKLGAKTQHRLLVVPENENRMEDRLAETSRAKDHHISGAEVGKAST
T2 sequence (Q9Y5S2 whole entry): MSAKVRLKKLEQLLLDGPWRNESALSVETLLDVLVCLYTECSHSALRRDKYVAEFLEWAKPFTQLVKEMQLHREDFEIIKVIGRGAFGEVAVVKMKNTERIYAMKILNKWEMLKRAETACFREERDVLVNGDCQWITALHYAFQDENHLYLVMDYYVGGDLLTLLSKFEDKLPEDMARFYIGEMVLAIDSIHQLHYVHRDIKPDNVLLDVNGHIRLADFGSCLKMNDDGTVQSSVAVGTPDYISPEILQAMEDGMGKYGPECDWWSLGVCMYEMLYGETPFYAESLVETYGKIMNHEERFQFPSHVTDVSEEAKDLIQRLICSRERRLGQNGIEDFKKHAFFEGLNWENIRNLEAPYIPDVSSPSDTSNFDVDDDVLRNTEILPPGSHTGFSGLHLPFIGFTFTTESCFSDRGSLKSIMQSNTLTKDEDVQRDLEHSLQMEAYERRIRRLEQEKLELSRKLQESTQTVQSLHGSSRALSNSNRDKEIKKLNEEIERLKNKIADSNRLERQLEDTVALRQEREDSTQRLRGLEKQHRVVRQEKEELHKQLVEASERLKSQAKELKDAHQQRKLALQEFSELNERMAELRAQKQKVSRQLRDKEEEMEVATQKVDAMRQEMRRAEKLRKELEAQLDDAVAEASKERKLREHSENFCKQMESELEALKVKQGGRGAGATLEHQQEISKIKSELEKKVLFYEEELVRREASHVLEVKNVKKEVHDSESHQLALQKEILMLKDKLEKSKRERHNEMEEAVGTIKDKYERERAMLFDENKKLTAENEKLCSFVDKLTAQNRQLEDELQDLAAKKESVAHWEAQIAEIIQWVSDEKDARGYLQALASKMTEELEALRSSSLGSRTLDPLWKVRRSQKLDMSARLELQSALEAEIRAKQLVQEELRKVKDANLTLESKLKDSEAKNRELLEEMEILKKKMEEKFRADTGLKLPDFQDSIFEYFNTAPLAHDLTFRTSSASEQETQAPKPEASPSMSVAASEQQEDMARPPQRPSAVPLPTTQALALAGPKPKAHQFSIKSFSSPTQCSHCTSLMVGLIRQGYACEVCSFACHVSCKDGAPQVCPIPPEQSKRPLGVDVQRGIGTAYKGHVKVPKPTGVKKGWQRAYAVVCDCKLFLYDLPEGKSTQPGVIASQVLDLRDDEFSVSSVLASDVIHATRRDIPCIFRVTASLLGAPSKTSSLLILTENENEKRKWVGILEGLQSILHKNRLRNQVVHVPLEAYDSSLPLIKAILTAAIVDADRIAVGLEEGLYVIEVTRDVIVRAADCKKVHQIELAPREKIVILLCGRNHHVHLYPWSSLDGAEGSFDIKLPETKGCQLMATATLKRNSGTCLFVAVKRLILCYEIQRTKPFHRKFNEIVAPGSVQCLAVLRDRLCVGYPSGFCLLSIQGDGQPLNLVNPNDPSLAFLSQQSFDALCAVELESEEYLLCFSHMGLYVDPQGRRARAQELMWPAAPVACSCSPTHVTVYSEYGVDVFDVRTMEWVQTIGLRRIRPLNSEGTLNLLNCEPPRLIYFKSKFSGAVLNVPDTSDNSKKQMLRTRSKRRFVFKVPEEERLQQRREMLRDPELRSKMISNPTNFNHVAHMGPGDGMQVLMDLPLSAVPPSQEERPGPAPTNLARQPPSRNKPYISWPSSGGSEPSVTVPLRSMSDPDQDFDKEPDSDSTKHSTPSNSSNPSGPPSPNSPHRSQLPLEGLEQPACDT
CSNK1G1 (CK1 gamma 1), sequence (Q9HCP0 whole entry): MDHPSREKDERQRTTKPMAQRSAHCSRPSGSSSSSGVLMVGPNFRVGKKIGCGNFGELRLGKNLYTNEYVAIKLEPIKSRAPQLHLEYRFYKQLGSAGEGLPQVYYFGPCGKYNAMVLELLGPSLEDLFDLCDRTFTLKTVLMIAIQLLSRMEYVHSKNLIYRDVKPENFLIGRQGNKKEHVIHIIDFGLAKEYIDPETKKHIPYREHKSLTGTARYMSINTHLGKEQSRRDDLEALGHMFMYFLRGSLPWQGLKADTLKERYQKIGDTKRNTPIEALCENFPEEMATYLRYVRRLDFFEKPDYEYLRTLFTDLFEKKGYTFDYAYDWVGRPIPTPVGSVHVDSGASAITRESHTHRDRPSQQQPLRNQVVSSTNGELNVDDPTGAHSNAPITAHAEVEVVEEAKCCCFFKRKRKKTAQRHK
T17 sequence (P15735 whole entry): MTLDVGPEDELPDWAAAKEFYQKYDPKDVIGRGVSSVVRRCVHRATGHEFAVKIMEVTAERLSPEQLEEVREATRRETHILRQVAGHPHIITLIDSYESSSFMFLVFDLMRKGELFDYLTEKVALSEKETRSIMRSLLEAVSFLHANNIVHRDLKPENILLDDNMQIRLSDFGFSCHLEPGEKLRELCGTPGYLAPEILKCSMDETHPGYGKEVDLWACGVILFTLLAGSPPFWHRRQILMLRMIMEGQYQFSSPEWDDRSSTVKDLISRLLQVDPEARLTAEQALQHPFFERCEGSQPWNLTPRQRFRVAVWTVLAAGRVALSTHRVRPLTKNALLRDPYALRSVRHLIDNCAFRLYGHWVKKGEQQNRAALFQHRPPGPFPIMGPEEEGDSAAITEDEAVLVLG
IGF1R, sequence (P08069 31-1367): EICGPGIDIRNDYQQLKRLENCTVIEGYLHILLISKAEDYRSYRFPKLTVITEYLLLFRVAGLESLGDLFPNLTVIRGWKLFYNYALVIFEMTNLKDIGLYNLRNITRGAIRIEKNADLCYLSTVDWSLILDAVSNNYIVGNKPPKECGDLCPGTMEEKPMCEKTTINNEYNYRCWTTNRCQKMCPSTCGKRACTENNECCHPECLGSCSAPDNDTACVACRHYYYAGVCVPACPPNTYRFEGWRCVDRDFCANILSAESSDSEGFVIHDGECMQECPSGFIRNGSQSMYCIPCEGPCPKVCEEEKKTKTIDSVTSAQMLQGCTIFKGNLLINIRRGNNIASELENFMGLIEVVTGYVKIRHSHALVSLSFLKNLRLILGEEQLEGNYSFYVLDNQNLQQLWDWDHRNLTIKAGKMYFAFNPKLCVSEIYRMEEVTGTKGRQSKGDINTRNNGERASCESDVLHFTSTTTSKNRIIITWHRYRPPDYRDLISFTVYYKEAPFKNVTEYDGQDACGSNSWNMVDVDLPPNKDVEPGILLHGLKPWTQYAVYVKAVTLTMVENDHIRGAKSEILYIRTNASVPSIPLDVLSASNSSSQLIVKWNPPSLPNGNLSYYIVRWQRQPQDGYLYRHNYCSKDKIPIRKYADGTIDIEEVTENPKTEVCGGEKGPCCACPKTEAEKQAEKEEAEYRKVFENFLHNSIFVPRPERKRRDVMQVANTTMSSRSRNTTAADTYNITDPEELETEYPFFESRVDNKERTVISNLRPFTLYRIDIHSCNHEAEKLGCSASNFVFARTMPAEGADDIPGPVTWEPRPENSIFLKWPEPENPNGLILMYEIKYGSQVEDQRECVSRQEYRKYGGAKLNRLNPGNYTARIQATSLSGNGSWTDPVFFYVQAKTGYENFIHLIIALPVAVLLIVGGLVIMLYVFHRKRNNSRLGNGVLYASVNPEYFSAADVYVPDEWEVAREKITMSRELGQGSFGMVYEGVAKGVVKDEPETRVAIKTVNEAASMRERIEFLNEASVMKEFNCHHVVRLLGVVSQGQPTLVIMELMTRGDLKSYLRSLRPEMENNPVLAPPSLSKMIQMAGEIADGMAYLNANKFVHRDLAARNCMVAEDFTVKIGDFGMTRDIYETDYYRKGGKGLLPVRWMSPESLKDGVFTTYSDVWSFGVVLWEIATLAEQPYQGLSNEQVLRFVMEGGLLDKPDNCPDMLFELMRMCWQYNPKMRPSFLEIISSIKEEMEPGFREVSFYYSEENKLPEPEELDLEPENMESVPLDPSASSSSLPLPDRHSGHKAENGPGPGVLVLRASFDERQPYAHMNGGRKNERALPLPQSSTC
T19 sequence (Q96BR1 whole entry): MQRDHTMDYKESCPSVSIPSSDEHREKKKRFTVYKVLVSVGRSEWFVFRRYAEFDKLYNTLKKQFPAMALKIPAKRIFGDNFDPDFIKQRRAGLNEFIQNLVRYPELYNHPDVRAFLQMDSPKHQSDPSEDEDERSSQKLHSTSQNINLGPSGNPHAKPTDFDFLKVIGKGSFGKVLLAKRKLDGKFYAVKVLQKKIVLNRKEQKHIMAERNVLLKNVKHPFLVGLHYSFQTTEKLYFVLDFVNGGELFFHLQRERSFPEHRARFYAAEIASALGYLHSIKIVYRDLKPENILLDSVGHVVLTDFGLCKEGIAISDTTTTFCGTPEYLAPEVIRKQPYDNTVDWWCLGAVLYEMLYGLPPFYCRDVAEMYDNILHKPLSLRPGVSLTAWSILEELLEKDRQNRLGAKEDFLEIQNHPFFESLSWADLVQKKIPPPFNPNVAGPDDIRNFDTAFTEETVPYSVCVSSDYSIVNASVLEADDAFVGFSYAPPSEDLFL
T18 sequence (P11309 whole entry): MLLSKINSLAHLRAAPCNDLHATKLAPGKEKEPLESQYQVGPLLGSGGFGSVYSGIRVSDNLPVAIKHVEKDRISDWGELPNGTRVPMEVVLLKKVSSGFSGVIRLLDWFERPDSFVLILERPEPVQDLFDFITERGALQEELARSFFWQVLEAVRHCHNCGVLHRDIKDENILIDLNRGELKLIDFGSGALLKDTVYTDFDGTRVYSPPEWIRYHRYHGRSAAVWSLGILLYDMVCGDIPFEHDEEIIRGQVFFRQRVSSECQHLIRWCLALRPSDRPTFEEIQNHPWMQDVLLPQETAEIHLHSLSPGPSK

Question: Which results are given for `COc1ccc2[nH]c3c(=O)[nH]c4ccc(O)cc4c3c2c1` [Compound 55, 2-Hydroxy-10-methoxy-5,7-dihydro-6H-indolo[2,3-c]quinolin-6-one]?
Answer: inhibition at 1 µM (ABL1 F317I): 14%; inhibition at 1 µM (ABL1 T315I): 24%; inhibition at 1 µM (AKT1 (PKB alpha)): 6%; inhibition at 1 µM (AMPK (A2/B2/G3)): 57%; inhibition at 1 µM (AURKA (Aurora A)): 58%; inhibition at 1 µM (CDC42 BPA (MRCKA)): 13%; inhibition at 1 µM (CDC42 BPB (MRCKB)): 10%; inhibition at 1 µM (CDK18/cyclin Y): 36%; inhibition at 1 µM (CHEK1 (CHK1)): 19%; inhibition at 1 µM (CSNK1D (CK1 delta)): 81%; inhibition at 1 µM (CSNK1E (CK1 epsilon)): 73%; inhibition at 1 µM (CSNK1G1 (CK1 gamma 1)): 20%; inhibition at 1 µM (CSNK1G2 (CK1 gamma 2)): 33%; inhibition at 1 µM (DAPK3 (ZIPK)): 44%; inhibition at 1 µM (DNA-PK): 54%; inhibition at 1 µM (DYRK4): 42%; inhibition at 1 µM (EGFR (ErbB1)): 4%; inhibition at 1 µM (EGFR (ErbB1) C797S): 4%; inhibition at 1 µM (EGFR (ErbB1) G719S): 11%; inhibition at 1 µM (EGFR (ErbB1) T790M): 30%; inhibition at 1 µM (EPHB2): 21%; inhibition at 1 µM (EPHB4): 21%; inhibition at 1 µM (FLT3): 93%; inhibition at 1 µM (IGF1R): 13%; inhibition at 1 µM (INSR): 21%; inhibition at 1 µM (KDR (VEGFR2)): 67%; inhibition at 1 µM (KIT): 6%; inhibition at 1 µM (MAPK3 (ERK1)): 27%; inhibition at 1 µM (MARK3): 31%; inhibition at 1 µM (MELK): 57%; inhibition at 1 µM (PHKG2): 8%; inhibition at 1 µM (PIM1): 71%; inhibition at 1 µM (PRKCG (PKC gamma)): 14%; inhibition at 1 µM (PTK6 (Brk)): 19%; inhibition at 1 µM (SGKL (SGK3)): 9%; inhibition at 1 µM (SRMS (Srm)): 16%; inhibition at 1 µM (STK22B (TSSK2)): 5%; inhibition at 1 µM (ZAP70): 0%

Reference: PMC9186362, “Design and biological evaluation of substituted 5,7-dihydro-6H-indolo[2,3-c]quinolin-6-one as novel selective Haspin inhibitors” (Journal of Enzyme Inhibition and Medicinal Chemistry, 2022)
